Values of other authors as cited in patent US9828573B2, “Alcohol composition and derivatives thereof” (SHELL OIL COMPANY, priority 2015, dated 2017).

System: Proponibacterium acnes
Settings: Journal of Natural Products Vol. 57, No. 1, pp. 9-17, January 1994

## CCCCCCCCCCCCCCCO [Normal 1-pentadecanol, 1-pentadecanol]
  activity against Proponibacterium acnes: specific activity
